Experimental data published in patent US20210085630A1, “PHARMACEUTICAL COMPOSITION AND USE THEREOF IN PREPARING DRUG FOR TREATING TUMOR MULTI-DRUG RESISTANCE” (SICHUAN JIUZHANG BIOLOGICAL SCIENCE AND TECHNOLOGY CO., LTD., priority 2018, published 2021).
Values after ≈ are worked out from the molar mass of the structure shown. Structures can show the parent of a compound that is named as a salt. Marks after values point to notes of the source that are not given here. Values belong to the compound of their own block, whether it stands above or below them.

Columns and labels:
PD-1/PD-L1 [1] = assay: PD-1/PD-L1 expression rate in transplanted tumor tissues, multidrug resistance model; assay type: in vivo; conditions: transplanted tumor tissues of B16 melanoma mice with multidrug resistance (as titled), Example 5 regimen
Excerpt: (§1) The positive expression rate of PD-1/PD-L1 in tumor tissues was detected by immunohistochemical SP method.

[2] = tested on: dacarbazine-resistant B16 melanoma; assay: Tumor weight and inhibition rate, transplanted dacarbazine-resistant B16 melanoma; assay type: in vivo; conditions: dacarbazine-resistant B16 melanoma mice; test drug 30 mg/kg i.p. once a day 5 days, then dacarbazine 60 mg/kg every other day; positive drug dacarbazine 60 mg/kg
Protocol: B16 melanoma cell lines were induced by the increased gradient concentration of dacarbazine, and established by clone screening and cultured without drug before the experiment.
(§2) After the drug was removed from the drug-resistant cell lines, the cell concentration was adjusted to 1×10^7/ml with the culture medium. 1×10^7/ml of cells were subcutaneously injected into the right armpit of mice, 0.1 ml per mouse.
(§3) After the average diameter of tumor reached […], the mice were randomly divided into test drug group 1, test drug group 2, test drug group 3, test drug group 4, test drug group 5, test drug group 6, positive drug group, and negative group, respectively.
(§4) Test drug group: the test drug group was first intraperitoneally injected, once a day, 30 mg/kg/time, for 5 consecutive days; administration was stopped, and the positive drug was given by intraperitoneal injection on the next day; wherein the positive drug dacarbazine was administrated once every other day, 60 mg/kg/time; wherein the positive drug gemcitabine was given once every other day, 300 mg/kg/time.
(§5) Positive drug group: positive drug dacarbazine was given once every other day, 60 mg/kg/time; positive drug gemcitabine was given once every other day, 300 mg/kg/time.
(§6) Negative group: normal saline was intraperitoneally injected, once a day, for 15 consecutive days.
(§7) After completion of administration, the experiment was stopped, and the mice were killed by cervical dislocation and weighed. The tumor was stripped and weighed, to calculate the tumor inhibition rate.

[3] = tested on: multi-drug resistant Lewis lung cancer; assay: Tumor weight and inhibition rate, transplanted multi-drug resistant Lewis lung cancer; assay type: in vivo, mice; conditions: for Tumor weight / Tumor-inhibition rate (%): multi-drug resistant Lewis lung cancer mice, test drug 30 mg/kg i.p. 5 days, then gemcitabine 300 mg/kg or dacarbazine 60 mg/kg every other day
Protocol: Lewis lung cancer cell lines were induced by the increased gradient concentration of dacarbazine and gemcitabine, and established by clone screening, then cultured without drug before the experiment.
as §2, §3, §4, §5, §6, §7

PD-1/PD-L1 [4] = assay: PD-1/PD-L1 expression rate (immunohistochemical SP method), drug-resistant B16 melanoma tumor tissue; assay type: in vivo; conditions: transplanted tumor tissues of drug-resistant B16 melanoma in mice, Example 3 regimen
Excerpt: as §1

[5] = tested on: CD4+T and CD8+T lymphocytes; assay: Number of CD4+T and CD8+T lymphocytes in transplanted tumor of multidrug-resistant Lewis lung cancer mice; assay type: in vivo; conditions: average of 6 high power fields
Protocol: (§8) The number of CD4+T and CD8+T lymphocytes was analyzed by immunofluorescence staining, and the average number of CD4+T and CD8+T cells infiltrated in 6 high power fields was counted.

[6] = tested on: drug-resistant A375 melanoma cell lines; assay: MTT: IC50 of dacarbazine against drug-resistant A375 cells and drug-resistant index; assay type: cell-based, human
Protocol: A375 melanoma cell lines were exposed to dacarbazine (400 μg/ml) for 3 months, and centrifuged, to culture dacarbazine-resistant A375 cells. The cells were observed every day, and taken through 3 passages for about 3 days, to ensure cell viability.
(§9) Above-mentioned cell lines and drug-resistant cell lines in the logarithmic growth phase were selected, the cell concentration was adjusted to 8×10^3 cells/well, and then cells were seeded in a 96-well plate. For the experiment, there were three groups: blank group, control group and dacarbazine group. In the blank group, only medium was added, without inoculating cells; in the control group, medium was added, and cells were inoculated; in the dacarbazine group, medium was added, cells were inoculated, and then dacarbazine was added at different concentrations. The plates were placed in an incubator and incubated for 48 h, then 5 mg/ml MTT (20 μl) was added to each well, and the plate was further incubated for 4 h.
Drug-resistant index=IC50 value of drug-resistant cells/IC50 value of sensitive cells

[7] = tested on: CD4+T and CD8+T lymphocytes; assay: Number of CD4+T and CD8+T cells (immunofluorescence), drug-resistant B16 melanoma transplanted tumor; assay type: in vivo; conditions: transplanted tumor of drug-resistant B16 melanoma in mice, average of 6 high power fields
Protocol: as §8

[8] = tested on: CD4+T and CD8+T lymphocytes; assay: Number of CD4+T and CD8+T cells (immunofluorescence), drug-resistant Lewis lung cancer transplanted tumor; assay type: in vivo; conditions: transplanted tumor of drug-resistant Lewis lung cancer in mice, average of 6 high power fields
Protocol: as §8

[9] = tested on: gemcitabine-resistant Lewis lung cancer; assay: Tumor weight and inhibition rate, transplanted gemcitabine-resistant Lewis lung cancer; assay type: in vivo; conditions: gemcitabine-resistant Lewis lung cancer mice; test drug 30 mg/kg i.p. once a day 5 days, then gemcitabine 300 mg/kg every other day; positive drug gemcitabine 300 mg/kg
Protocol: Lewis lung cancer cell lines were induced by the increased gradient concentration of gemcitabine, and established by clone screening and cultured without drug before the experiment.
as §2, §3, §4, §5, §6, §7

PD-1/PD-L1 [10] = assay: PD-1/PD-L1 expression rate (immunohistochemical SP method), drug-resistant Lewis lung cancer tumor tissue; assay type: in vivo; conditions: transplanted tumor tissues of drug-resistant Lewis lung cancer in mice, Example 3 regimen
Excerpt: as §1

[11] = tested on: drug-resistant A549 lung cancer cell lines; assay: MTT: IC50 of gemcitabine against drug-resistant A549 cells and drug-resistant index; assay type: cell-based, human
Protocol: A549 lung cancer cell lines were exposed to gemcitabine (2000 μg/ml) for 3 months, and centrifuged, to culture gemcitabine-resistant A549 cells. The cells were observed every day, and taken through 3 passages for about 3 days, to ensure cell viability.
as §9, with “gemcitabine” for “dacarbazine”, “h. […] Drug-resistant index=IC50 value of drug-resistant cells/IC50 value of sensitive cells” for “h.”

[12] = tested on: Lewis lung cancer cell lines; assay: Establishment of Opdivo-resistant tumor model, tumor volume over time, Lewis lung cancer; assay type: in vivo; conditions: Lewis lung cancer mice, Opdivo 30 mg/kg i.p. every other day
Protocol: (§10) The concentration of cell lines was adjusted to 1×10^7/ml with the culture medium. 1×10^7/ml of cells were subcutaneously injected into the right armpit of mice, 0.1 ml per mouse.

[13] = tested on: CD4+T and CD8+T lymphocytes; assay: Number of CD4+T and CD8+T cells in Opdivo-resistant Lewis lung cancer mice; assay type: in vivo; conditions: drug-resistant (Opdivo) Lewis lung cancer mice, average of 6 high power fields
Protocol: as §8

PD-1/PD-L1 [14] = assay: PD-1/PD-L1 expression rate in tumor tissues of Opdivo-resistant B16 melanoma mice; assay type: in vivo; conditions: tumor tissues of drug-resistant (Opdivo) B16 melanoma mice
Excerpt: as §1

PD-1/PD-L1 [15] = assay: PD-1/PD-L1 expression rate in tumor tissues of Opdivo-resistant Lewis lung cancer mice; assay type: in vivo; conditions: tumor tissues of drug-resistant (Opdivo) Lewis lung cancer mice
Excerpt: as §1

[16] = tested on: Opdivo-resistant Lewis lung cancer; assay: Antitumor effect (tumor volume, weight, inhibition rate) in Opdivo-resistant Lewis lung cancer mice; assay type: in vivo
Protocol: as §10
(§11) The model mice were randomly divided into groups, eight for one group, and included test drug group 1, test drug group 2, test drug group 3, test drug group 4, positive drug Opdivo group, single drug chlorogenic acid group, test drug 1+Opdivo group, test drug 2+Opdivo group, test drug 3+Opdivo group, test drug 4+Opdivo group, and negative group, respectively.
(§12) Test drug group: from the second day after stopping administration to the model, the group received drug by intraperitoneal injection, once a day, 30 mg/kg.
(§13) Single drug group: from the second day after stopping administration to the model, the group received drug by intraperitoneal injection, once a day, 30 mg/kg.
(§14) Test drug+Opdivo group: from the second day after stopping administration to the model, the group received the test drug by intraperitoneal injection, once a day, and the test drug was stopped after administrating for 5 consecutive days; on the next day, Opdivo was intraperitoneally injected, once every other day, with the dosage of 30 mg/kg.
(§15) Positive drug group: once every other day, 30 mg/kg.
(§16) Negative group: normal saline was intraperitoneally injected, once a day, the same amount of saline.
(§17) Before each administration, the tumor volume was measured, and the experiment was stopped when the average tumor volume of negative group was greater than 1.5 cm^3.
as §7

[17] = tested on: CD4+T and CD8+T lymphocytes; assay: Number of CD4+T and CD8+T cells in Opdivo-resistant B16 melanoma mice; assay type: in vivo; conditions: drug-resistant (Opdivo) B16 melanoma mice, average of 6 high power fields
Protocol: as §8

[18] = tested on: Opdivo-resistant B16 melanoma; assay: Antitumor effect (tumor volume, weight, inhibition rate) in Opdivo-resistant B16 melanoma mice; assay type: in vivo
Protocol: as §10, §11, §12, §13, §14, §15, §16, §17, §7

B16 melanoma cell lines = assay: Establishment of Opdivo-resistant tumor model, tumor volume over time, B16 melanoma; assay type: in vivo; conditions: B16 melanoma mice, Opdivo 30 mg/kg i.p. every other day
Protocol: as §10

[19] = 30 mg/kg i.p. once a day, + Opdivo groups: test drug 5 days, then Opdivo 30 mg/kg every other day
[20] = 30 mg/kg i.p., + Opdivo groups 30 + 30 mg/kg

- IC50 ([6]; Homo sapiens, A-375, dacarbazine against drug-resistant A375 melanoma cell lines, MTT, 48 h, read-out: IC50 Concentration): 560 µg/mL
Compound: CN(C)/N=N/c1[nH]cnc1C(N)=O [Dacarbazine, 5-(3,3-dimethyl-1-triazenyl)-4-carboxamideimidazolium citrate, reference compound]
- Expression rate of PD-1/PD-L1, Positive PD-L1 (PD-1/PD-L1 [1]): 72.51%
- Tumor inhibition rate (%) [2]: 4.55%
- Tumor weight [2]: 2.52 ± 0.77 g
- Tumor weight [3]: 2.33 ± 0.52 g
- Tumor-inhibition rate (%) [3]: 1.27%
- Expression rate of PD-1/PD-L1, Positive PD-L1 (PD-1/PD-L1 [4]): 72.51%
- CD4 + T cells (number) [5]: 74.52 ± 7.38
- CD8 + T cells (number) [5]: 123.74 ± 12.85
- Drug-resistant index ([6]; IC50 of drug-resistant cells/IC50 of sensitive cells, A375): 6.22
- CD4 + T cells (number) [7]: 63.67 ± 5.83
- CD8 + T cells (number) [7]: 91.23 ± 3.84

- IC50 ([11]; Homo sapiens, gemcitabine against drug-resistant A549 lung cancer cell lines, MTT, 48 h, read-out: IC50 Concentration): 3620 µg/mL (≈ 13.8 mM)
Compound: Nc1ccn([C@@H]2O[C@H](CO)[C@@H](O)C2(F)F)c(=O)n1 [Gemcitabine, gemcitabine, reference compound]
- CD4 + T cells (number) [8]: 82.16 ± 1.42
- CD8 + T cells (number) [8]: 112.53 ± 4.28
- Tumor inhibitory rate (%) [9]: 5.24%
- Tumor weight (g) [9]: 2.17 ± 0.89 ^ g
- Expression rate of PD-1/PD-L1, Positive PD-L1 (PD-1/PD-L1 [1]): 74.35%
- Tumor weight [3]: 2.27 ± 0.38 g
- Tumor-inhibition rate (%) [3]: 3.81%
- inhibitory effect on the tumor (in words) ([3]; multidrug-resistant Lewis lung cancer mice, positive drug groups): don't have obvious inhibitory effect
- Expression rate of PD-1/PD-L1, Positive PD-L1 (PD-1/PD-L1 [10]): 78.93%
- CD4 + T cells (number) [5]: 77.69 ± 8.96
- CD8 + T cells (number) [5]: 121.08 ± 10.32
- Drug-resistant index ([11]; IC50 of drug-resistant cells/IC50 of sensitive cells, A549): 4.63

Compound: Opdivo: human programmed death receptor-1 (PD-1) blocking antibody; PD-1 inhibitor
- Tumor volume, Model group (cm^3) ([12]; 4 d after inoculation): 0.00 ± 0.000 ** cm^3
- Tumor volume, Model group (cm^3) ([12]; 6 d after inoculation): 0.073 ± 0.052* cm^3
- Tumor volume, Model group (cm^3) ([12]; 8 d after inoculation): 0.098 ± 0.075** cm^3
- Tumor volume, Model group (cm^3) ([12]; 10 d after inoculation): 0.121 ± 0.101** cm^3
- Tumor volume, Model group (cm^3) ([12]; 12 d after inoculation): 0.164 ± 0.084** cm^3
- Tumor volume, Model group (cm^3) ([12]; 14 d after inoculation): 0.226 ± 0.113** cm^3
- Tumor volume, Model group (cm^3) ([12]; 16 d after inoculation): 0.464 ± 0.154* cm^3
- Tumor volume, Model group (cm^3) ([12]; 18 d after inoculation): 0.984 ± 0.236 cm^3
- CD4 + T cells (number) [13]: 64.22 ± 7.74
- CD8 + T cells (number) [13]: 117.81 ± 7.99
- Expression rate of PD-1/PD-L1, Positive PD-L1 (PD-1/PD-L1 [14]): 85.87%
- Expression rate of PD-1/PD-L1, Positive PD-L1 (PD-1/PD-L1 [15]): 72.77%
- continuous treatment effect / effect on tumor volume control (in words) [16]: not obvious
- Tumor volume (cm^3) [16, 19]: 1.616 ± 0.772 cm^3
- Tumor inhibition rate (%) [16, 20]: 2.38%
- Tumor weight [16, 20]: 2.52 ± 0.83 g
- CD4 + T cells (number) [17]: 74.63 ± 6.35
- CD8 + T cells (number) [17]: 88.61 ± 5.82
- continuous treatment effect / effect on tumor volume control (in words) [18]: not obvious
- Tumor volume (cm^3) [18, 19]: 1.793 ± 0.842 cm^3
- Tumor inhition rate (%) [18, 20]: 1.41%
- Tumor weight [18, 20]: 2.79 ± 1.13 g
- Tumor volume, Model group (cm^3) (B16 melanoma cell lines; 2 d after inoculation): 0.00 ± 0.000 ** cm^3
- Tumor volume, Model group (cm^3) (B16 melanoma cell lines; 4 d after inoculation): 0.084 ± 0.047 ** cm^3
- Tumor volume, Model group (cm^3) (B16 melanoma cell lines; 6 d after inoculation): 0.106 ± 0.043 ** cm^3
- Tumor volume, Model group (cm^3) (B16 melanoma cell lines; 8 d after inoculation): 0.128 ± 0.062 ** cm^3
- Tumor volume, Model group (cm^3) (B16 melanoma cell lines; 10 d after inoculation): 0.179 ± 0.147 ** cm^3
- Tumor volume, Model group (cm^3) (B16 melanoma cell lines; 12 d after inoculation): 0.286 ± 0.116 ** cm^3
- Tumor volume, Model group (cm^3) (B16 melanoma cell lines; 14 d after inoculation): 0.881 ± 0.204 cm^3
